Assay results published in patent US10392391B2 (Vertex Pharmaceuticals Incorporated, priority 2012, dated 2019).

Target: ATR kinase (full-length ATR) (Homo sapiens (Human), UniProt Q13535)
Assay: ATR inhibition assay (radioactive-phosphate incorporation)
Format: biochemical
Details: not given
How it was run: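 Ki(app) was fitted by non-linear regression to background-corrected initial rates. Full-length ATR (5 nM) phosphorylated 800 μM peptide using 10 μM [γ-33P]ATP at 25° C in Tris/HCl pH 7.5 buffer with MgCl2, DTT and 7% DMSO. After 10-minute compound pre-incubation and 24-hour reaction, phosphocellulose filters were scintillation counted.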

Chain of ATR kinase (full-length ATR) (Q13535 whole entry): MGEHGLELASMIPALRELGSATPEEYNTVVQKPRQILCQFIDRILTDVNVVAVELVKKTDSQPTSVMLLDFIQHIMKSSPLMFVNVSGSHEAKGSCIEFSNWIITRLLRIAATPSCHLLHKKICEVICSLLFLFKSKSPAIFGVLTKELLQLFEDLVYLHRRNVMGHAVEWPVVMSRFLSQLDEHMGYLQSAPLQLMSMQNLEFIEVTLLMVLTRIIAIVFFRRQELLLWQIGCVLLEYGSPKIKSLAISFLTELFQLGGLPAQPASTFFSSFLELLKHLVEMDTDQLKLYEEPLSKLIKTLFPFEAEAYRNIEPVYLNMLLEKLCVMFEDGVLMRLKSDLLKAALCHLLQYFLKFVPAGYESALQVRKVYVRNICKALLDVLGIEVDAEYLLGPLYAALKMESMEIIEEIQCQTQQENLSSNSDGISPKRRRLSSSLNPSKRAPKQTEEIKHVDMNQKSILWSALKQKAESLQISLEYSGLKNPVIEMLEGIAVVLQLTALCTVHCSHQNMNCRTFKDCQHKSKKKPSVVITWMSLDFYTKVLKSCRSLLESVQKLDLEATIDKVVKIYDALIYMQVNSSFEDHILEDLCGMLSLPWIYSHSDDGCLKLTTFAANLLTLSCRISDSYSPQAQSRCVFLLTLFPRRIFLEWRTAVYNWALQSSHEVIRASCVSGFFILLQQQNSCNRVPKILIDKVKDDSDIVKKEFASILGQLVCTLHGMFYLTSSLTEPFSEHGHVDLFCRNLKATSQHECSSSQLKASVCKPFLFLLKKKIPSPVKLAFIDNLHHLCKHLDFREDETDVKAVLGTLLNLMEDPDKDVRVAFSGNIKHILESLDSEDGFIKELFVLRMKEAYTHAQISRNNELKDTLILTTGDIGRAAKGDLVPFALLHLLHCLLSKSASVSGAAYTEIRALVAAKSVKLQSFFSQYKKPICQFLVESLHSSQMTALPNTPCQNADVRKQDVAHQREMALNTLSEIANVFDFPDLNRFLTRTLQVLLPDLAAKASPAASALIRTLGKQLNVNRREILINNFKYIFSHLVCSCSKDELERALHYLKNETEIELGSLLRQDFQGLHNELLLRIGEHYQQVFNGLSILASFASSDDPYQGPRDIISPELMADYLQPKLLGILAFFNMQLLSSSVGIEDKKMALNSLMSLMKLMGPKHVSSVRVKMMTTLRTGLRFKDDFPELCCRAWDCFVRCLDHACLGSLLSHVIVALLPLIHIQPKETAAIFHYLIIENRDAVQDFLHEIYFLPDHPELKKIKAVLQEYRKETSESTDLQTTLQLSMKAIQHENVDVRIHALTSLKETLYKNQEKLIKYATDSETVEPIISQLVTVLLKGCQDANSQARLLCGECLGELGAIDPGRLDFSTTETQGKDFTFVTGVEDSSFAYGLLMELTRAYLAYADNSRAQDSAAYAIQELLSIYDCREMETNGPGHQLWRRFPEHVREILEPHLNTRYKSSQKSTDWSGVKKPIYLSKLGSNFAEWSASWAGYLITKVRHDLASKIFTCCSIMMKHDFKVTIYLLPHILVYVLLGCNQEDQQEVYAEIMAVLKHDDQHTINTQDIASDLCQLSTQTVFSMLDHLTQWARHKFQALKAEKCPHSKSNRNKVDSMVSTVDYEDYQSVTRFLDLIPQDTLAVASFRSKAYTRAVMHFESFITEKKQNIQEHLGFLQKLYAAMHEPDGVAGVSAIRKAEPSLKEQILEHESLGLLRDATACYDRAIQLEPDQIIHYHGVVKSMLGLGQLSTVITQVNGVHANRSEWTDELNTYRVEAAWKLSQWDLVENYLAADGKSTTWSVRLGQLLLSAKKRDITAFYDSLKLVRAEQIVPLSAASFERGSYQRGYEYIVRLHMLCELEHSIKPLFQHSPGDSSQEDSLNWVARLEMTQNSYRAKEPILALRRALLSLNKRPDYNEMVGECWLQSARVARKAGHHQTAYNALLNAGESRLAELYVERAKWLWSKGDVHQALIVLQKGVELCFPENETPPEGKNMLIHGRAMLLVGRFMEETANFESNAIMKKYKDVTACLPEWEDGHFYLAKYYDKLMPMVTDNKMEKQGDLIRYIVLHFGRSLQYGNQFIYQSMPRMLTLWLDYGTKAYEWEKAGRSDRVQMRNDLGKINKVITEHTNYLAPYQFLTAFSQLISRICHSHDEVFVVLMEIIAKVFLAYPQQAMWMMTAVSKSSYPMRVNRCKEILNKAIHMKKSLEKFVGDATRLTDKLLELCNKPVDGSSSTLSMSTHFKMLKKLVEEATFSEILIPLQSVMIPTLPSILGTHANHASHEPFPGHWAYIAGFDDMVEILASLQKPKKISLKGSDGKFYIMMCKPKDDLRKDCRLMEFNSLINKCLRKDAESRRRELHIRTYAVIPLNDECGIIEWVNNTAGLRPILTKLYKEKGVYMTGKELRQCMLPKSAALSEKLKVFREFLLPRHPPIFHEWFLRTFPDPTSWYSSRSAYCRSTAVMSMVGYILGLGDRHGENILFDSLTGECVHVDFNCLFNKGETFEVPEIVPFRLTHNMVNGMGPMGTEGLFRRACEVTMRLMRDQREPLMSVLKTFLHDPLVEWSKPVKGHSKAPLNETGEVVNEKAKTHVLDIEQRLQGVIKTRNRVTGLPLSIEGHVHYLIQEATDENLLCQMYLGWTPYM

`Nc1nn2cc(F)cnc2c1C(=O)Nc1cncc(F)c1N1CCC(C(=O)N2CC(O)C2)CC1` [I-G-41, 2-amino-6-fluoro-N-(5-fluoro-4-(4-(3-hydroxyazetidine-1-carbonyl)piperidin-1-yl)pyridin-3-yl)pyrazolo[1,5-a]pyrimidine-3-carboxamide] and `CN1CCN(c2c(C#N)cncc2NC(=O)c2c(N)nn3cc(F)cnc23)CC1` [I-N-113, 2-amino-N-(5-cyano-4-(4-methylpiperazin-1-yl)pyridin-3-yl)-6-fluoropyrazolo[1,5-a]pyrimidine-3-carboxamide] fall in the same range of Ki: 1 to 5 µM for the first, 1 to 5 µM for the second.

Compound `CN1CCN(c2ccncc2NC(=O)c2c(N)nn3cc(C(C)(C)C#N)cnc23)CC1` [I-N-76, 2-amino-6-(2-cyanopropan-2-yl)-N-(4-(4-methylpiperazin-1-yl)pyridin-3-yl)pyrazolo[1,5-a]pyrimidine-3-carboxamide] has a Ki of 1 to 5 µM.

Same assay, conditions: Ki(app), 5 nM full-length ATR, 10 μM ATP, 25° C.

`Nc1nn2cc(F)cnc2c1C(=O)Nc1cnccc1N1CCN(C2CCOC2)CC1` (racemic) [I-N-19, (R,S)-2-amino-6-fluoro-N-(4-(4-(tetrahydrofuran-3-yl)piperazin-1-yl)pyridin-3-yl)pyrazolo[1,5-a]pyrimidine-3-carboxamide] and `Nc1nn2cc(F)cnc2c1C(=O)Nc1cncc(C2CC2)c1N1CCN([C@@H]2CCOC2)CC1` [I-N-119, (R)-2-amino-N-(5-cyclopropyl-4-(4-(tetrahydrofuran-3-yl)piperazin-1-yl)pyridin-3-yl)-6-fluoropyrazolo[1,5-a]pyrimidine-3-carboxamide] fall in the same range of Ki: 0.01 to 1 µM for the first, 0.01 to 1 µM for the second.

`Nc1nn2cc(F)cnc2c1C(=O)Nc1cnccc1N1CCC(C(=O)N2CC3(COC3)C2)CC1` [I-G-88, N-(4-(4-(2-oxa-6-azaspiro[3.3]heptane-6-carbonyl)piperidin-1-yl)pyridin-3-yl)-2-amino-6-fluoropyrazolo[1,5-a]pyrimidine-3-carboxamide] and `CC(=O)N1CCC2(CCN(c3ccncc3NC(=O)c3c(N)nn4cc(F)cnc34)CC2)C1` [I-N-257, N-(4-(2-acetyl-2,8-diazaspiro[4.5]decan-8-yl)pyridin-3-yl)-2-amino-6-fluoropyrazolo[1,5-a]pyrimidine-3-carboxamide] fall in the same range of Ki: 0.01 to 1 µM for the first, 0.01 to 1 µM for the second.

`Cc1cncc(NC(=O)c2c(N)nn3cc(F)cnc23)c1-n1nccc1C` [I-N-237] and `Cc1ncnn1-c1ccncc1NC(=O)c1c(N)nn2cc(F)cnc12` [I-N-162, 2-amino-6-fluoro-N-(4-(5-methyl-1H-1,2,4-triazol-1-yl)pyridin-3-yl)pyrazolo[1,5-a]pyrimidine-3-carboxamide] fall in the same range of Ki: 0.01 to 1 µM for the first, 0.01 to 1 µM for the second.

`CN(C)CCCN(C)C(=O)C1CCN(c2c(F)cncc2NC(=O)c2c(N)nn3cc(F)cnc23)CC1` [I-G-16, 2-amino-N-(4-(4-((3-(dimethylamino)propyl)(methyl)carbamoyl)piperidin-1-yl)-5-fluoropyridin-3-yl)-6-fluoropyrazolo[1,5-a]pyrimidine-3-carboxamide] and `CN(C)C(=O)C1CCN(c2c(F)cncc2NC(=O)c2c(N)nn3cc(F)cnc23)CC1` [I-G-29, 2-amino-N-(4-(4-(dimethylcarbamoyl)piperidin-1-yl)-5-fluoropyridin-3-yl)-6-fluoropyrazolo[1,5-a]pyrimidine-3-carboxamide] fall in the same range of Ki: 0.01 to 1 µM for the first, 0.01 to 1 µM for the second.

`CN1CCC[C@H]1COc1ccncc1NC(=O)c1c(N)nn2cc(Cl)cnc12` [I-O-50, (S)-2-amino-6-chloro-N-(4-((1-methylpyrrolidin-2-yl)methoxy)pyridin-3-yl)pyrazolo[1,5-a]pyrimidine-3-carboxamide] and `COCCOc1ccncc1NC(=O)c1c(N)nn2cc(Cl)cnc12` [I-O-55, 2-amino-6-chloro-N-(4-(2-methoxyethoxy)pyridin-3-yl)pyrazolo[1,5-a]pyrimidine-3-carboxamide] fall in the same range of Ki: 0.01 to 1 µM for the first, 0.01 to 1 µM for the second.

`CN(C)C(=O)C1CN(c2ccncc2NC(=O)c2c(N)nn3cc(F)cnc23)CCO1` (stereo not shown) [I-N-234, 4-(3-(2-amino-6-fluoropyrazolo[1,5-a]pyrimidine-3-carboxamido)pyridin-4-yl)-N,N-dimethylmorpholine-2-carboxamide] and `CN1CCN2CCN(c3ccncc3NC(=O)c3c(N)nn4cc(F)cnc34)CC2C1=O` (stereo not shown) [I-N-233, 2-amino-6-fluoro-N-(4-(8-methyl-9-oxohexahydro-1H-pyrazino[1,2-a]pyrazin-2(6H)-yl)pyridin-3-yl)pyrazolo[1,5-a]pyrimidine-3-carboxamide] fall in the same range of Ki: 0.01 to 1 µM for the first, 0.01 to 1 µM for the second.

`Nc1nn2cc(Cl)cnc2c1C(=O)Nc1cnccc1OCCCO` [I-O-53, 2-amino-6-chloro-N-(4-(3-hydroxypropoxy)pyridin-3-yl)pyrazolo[1,5-a]pyrimidine-3-carboxamide] and `CN1CCN(c2ccncc2NC(=O)c2c(N)nn3cc(Cl)cnc23)CC1` [I-N-59, 2-amino-6-chloro-N-(4-(4-methylpiperazin-1-yl)pyridin-3-yl)pyrazolo[1,5-a]pyrimidine-3-carboxamide] fall in the same range of Ki: 0.01 to 1 µM for the first, 0.01 to 1 µM for the second.

`CN1CC[C@H](Oc2ccncc2NC(=O)c2c(N)nn3cc(F)cnc23)C1` [I-O-1, (S)-2-amino-6-fluoro-N-(4-((1-methylpyrrolidin-3-yl)oxy)pyridin-3-yl)pyrazolo[1,5-a]pyrimidine-3-carboxamide] and `Nc1nn2cc(F)cnc2c1C(=O)Nc1cnccc1O[C@H]1CN2CCC1CC2` [I-O-5, (R)-2-amino-6-fluoro-N-(4-(quinuclidin-3-yloxy)pyridin-3-yl)pyrazolo[1,5-a]pyrimidine-3-carboxamide] fall in the same range of Ki: 0.01 to 1 µM for the first, 0.01 to 1 µM for the second.

`Nc1nn2cc(F)cnc2c1C(=O)Nc1cncc(F)c1N1CCC(C(=O)N2CC[C@H](N3CCCC3)C2)CC1` [I-G-58, (S)—N-(4-(4-([1,3′-bipyrrolidine]-1′-carbonyl)piperidin-1-yl)-5-fluoropyridin-3-yl)-2-amino-6-fluoropyrazolo[1,5-a]pyrimidine-3-carboxamide] and `Nc1nn2cc(F)cnc2c1C(=O)Nc1cncc(F)c1N1CCC(C(=O)N2CC(N3CCCCC3)C2)CC1` [I-G-57, 2-amino-6-fluoro-N-(5-fluoro-4-(4-(3-(piperidin-1-yl)azetidine-1-carbonyl)piperidin-1-yl)pyridin-3-yl)pyrazolo[1,5-a]pyrimidine-3-carboxamide] fall in the same range of Ki: 0.01 to 1 µM for the first, 0.01 to 1 µM for the second.

`C[C@@H]1CN(C(=O)C2CCN(c3c(F)cncc3NC(=O)c3c(N)nn4cc(F)cnc34)CC2)CCN1C` [I-G-50, (R)-2-amino-N-(4-(4-(3,4-dimethylpiperazine-1-carbonyl)piperidin-1-yl)-5-fluoropyridin-3-yl)-6-fluoropyrazolo[1,5-a]pyrimidine-3-carboxamide] and `CN1CC(N2CCN(C(=O)C3CCN(c4c(F)cncc4NC(=O)c4c(N)nn5cc(F)cnc45)CC3)CC2)C1` [I-G-96, 2-amino-6-fluoro-N-(5-fluoro-4-(4-(4-(1-methylazetidin-3-yl)piperazine-1-carbonyl)piperidin-1-yl)pyridin-3-yl)pyrazolo[1,5-a]pyrimidine-3-carboxamide] fall in the same range of Ki: 0.01 to 1 µM for the first, 0.01 to 1 µM for the second.

`Nc1nn2cc(Cl)cnc2c1C(=O)Nc1cnccc1N1CCC(N2CC[S+]([O-])CC2)CC1` [I-N-100, 2-amino-6-chloro-N-(4-(4-(1-oxidothiomorpholino)piperidin-1-yl)pyridin-3-yl)pyrazolo[1,5-a]pyrimidine-3-carboxamide] and `COC(=O)C1CCN(c2ccncc2NC(=O)c2c(N)nn3cc(Cl)cnc23)CC1` [I-N-74, methyl-1-(3-(2-amino-6-chloropyrazolo[1,5-a]pyrimidine-3-carboxamido)pyridin-4-yl)piperidine-4-carboxylate] fall in the same range of Ki: 0.01 to 1 µM for the first, 0.01 to 1 µM for the second.

`N#CCc1cnc2c(C(=O)Nc3cnccc3OC3CNC3)c(N)nn2c1` [I-O-82, 2-amino-N-(4-(azetidin-3-yloxy)pyridin-3-yl)-6-(cyanomethyl)pyrazolo[1,5-a]pyrimidine-3-carboxamide] and `N#CCc1cnc2c(C(=O)Nc3cnccc3OC3CCOCC3)c(N)nn2c1` [I-O-30, 2-amino-6-(cyanomethyl)-N-(4-((tetrahydro-2H-pyran-4-yl)oxy)pyridin-3-yl)pyrazolo[1,5-a]pyrimidine-3-carboxamide] cannot be ordered by Ki: less than 0.01 µM for the first, less than 0.01 µM for the second.

`Nc1nn2cc(F)cnc2c1C(=O)Nc1cnccc1-n1ccnc1` [I-N-7, N-(4-(1H-imidazol-1-yl)pyridin-3-yl)-2-amino-6-fluoropyrazolo[1,5-a]pyrimidine-3-carboxamide] and `CC1(N2CCN(c3ccncc3NC(=O)c3c(N)nn4cc(F)cnc34)CC2)COC1` [I-N-62, 2-amino-6-fluoro-N-(4-(4-(3-methyloxetan-3-yl)piperazin-1-yl)pyridin-3-yl)pyrazolo[1,5-a]pyrimidine-3-carboxamide] fall in the same range of Ki: 0.01 to 1 µM for the first, 0.01 to 1 µM for the second.

`CN1CCC[C@H]1C(=O)N1CCN(c2c(F)cncc2NC(=O)c2c(N)nn3cc(F)cnc23)CC1` [I-N-157, (S)-2-amino-6-fluoro-N-(5-fluoro-4-(4-(1-methylpyrrolidine-2-carbonyl)piperazin-1-yl)pyridin-3-yl)pyrazolo[1,5-a]pyrimidine-3-carboxamide] and `CCN1CCCC1C(=O)N1CCN(c2c(F)cncc2NC(=O)c2c(N)nn3cc(F)cnc23)CC1` (stereo not shown) [I-N-185, 2-amino-N-(4-(4-(1-ethylpyrrolidine-2-carbonyl)piperazin-1-yl)-5-fluoropyridin-3-yl)-6-fluoropyrazolo[1,5-a]pyrimidine-3-carboxamide] fall in the same range of Ki: 0.01 to 1 µM for the first, 0.01 to 1 µM for the second.

`Nc1nn2cc(F)cnc2c1C(=O)Nc1cncc(F)c1N1CCC(C(=O)N2CC(N3CCC3)C2)CC1` [I-G-49, N-(4-(4-([1,3′-biazetidine]-1′-carbonyl)piperidin-1-yl)-5-fluoropyridin-3-yl)-2-amino-6-fluoropyrazolo[1,5-a]pyrimidine-3-carboxamide] and `Nc1nn2cc(F)cnc2c1C(=O)Nc1cncc(F)c1N1CCC2(CC1)COC2` [I-N-239, 2-amino-6-fluoro-N-(5-fluoro-4-(2-oxa-7-azaspiro[3.5]nonan-7-yl)pyridin-3-yl)pyrazolo[1,5-a]pyrimidine-3-carboxamide] fall in the same range of Ki: 0.01 to 1 µM for the first, 0.01 to 1 µM for the second.

With `Nc1nn2cc(Cl)cnc2c1C(=O)Nc1cnccc1N1CCN(CC(F)(F)F)CC1` [I-N-67, 2-amino-6-chloro-N-(4-(4-(2,2,2-trifluoroethyl)piperazin-1-yl)pyridin-3-yl)pyrazolo[1,5-a]pyrimidine-3-carboxamide] the Ki was 0.01 to 1 µM.
